# Data taken from patent publication US20060235063A1, “Method of protecting a soybean plant with flutriafol” (priority 2005, published 2006).
# What was measured:
# [1] = test system: Asian Rust in Soy Beans; assay: Example 3: greenhouse experiment, flutriafol seed or soil dressing, plants inoculated with rust spores at third trifoliate; assay type: in vivo, Phakopsora pachyrhizi; parameters: average recorded incidence of disease on the third trifoliate: unit not given here
# Method: Soya seed was treated with a range of flutriafol rates, as presented in Table 3 below (right-hand side). Additionally, flutriafol was applied directly to the soil, at the rates described below (left-hand side). Three replicates where made per treatment. At the third trifoliate stage, seedlings where inoculated with rust spores on the ad- and ab-axial surfaces of the third trifoliate.
# Following treatments and inoculations, the inoculated plants where transferred to a climate chamber, watered as necessary and evaluated for the incidence of Asian Rust. The average of the recorded incidence of disease on the third trifoliate is presented below.
# [2] = test system: Asian Rust (Phakopsora pachyrhizi) in Soy Beans; assay: Example 1: climate chamber test, flutriafol seed or soil dressing, plants inoculated with rust spores at third trifoliate; assay type: in vivo
# Method: Soy bean seed was treated with a range of flutriafol rates, as presented in Table 1 below (right-hand side). Additionally, flutriafol was applied directly to the soil, at the rates described below (left-hand side). Three replicates were done per treatment. At the third trifoliate stage, seedlings where inoculated with rust spores on the ad- and ab-axial surfaces of the third trifoliate.
# Following treatments and inoculations, the inoculated plants were transferred to a climate chamber, watered as necessary and evaluated for the incidence of Asian Rust. The average of the recorded incidence of disease (%) on the third trifoliate is presented below. An untreated control is also provided as comparative data.
# [3] = test system: soybean; assay: Example 2: field trial, count of emerged seedlings (crop safety); settings: in vivo
# Excerpt: (§1) Seed was drilled at 60 kg per hectare in four replicates per treatment. Each replicate consisted of a 6 m row of 100 seeds. With the seed treatments, fertilizer was first applied up to 2 cm below seed depth and then the rows opened to a depth of 3 cm, the seeds sown and the rows closed with soil. In each treatment there were five rows of 6 m length with 45 cm between rows. With the in-furrow treatments, the row was opened using a hoe, and then the appropriate weight amount of Impact 1.5 GR was applied in the row followed directly afterwards with seed placed over the granules. Soil was then placed over the seed to close the row.
# (§2) Twenty two days after planting, the number of plants emerged was evaluated by counting the emerged seedlings in each of the central three rows of each plot. Disease assessment was done 61 days after emergence by selecting 20 leaves per plot from the whole plant at random, and estimating the percentage rust coverage (% disease severity).
# [4] = test system: soybean rust; assay: Example 2: field trial at Formoso do Araguaia, Brazil, percentage rust coverage on leaves; assay type: in vivo
# Excerpt: A trial in Brazil at Formoso do Araguaia examined the rust control from nine rates of flutriafol applied as a 1.5% granule in a rate range of 4 to 40 kg formulated product per hectare (60 to 600 g flutriafol active ingredient per hectare), three rates of Vincit 2.5% powder seed dressing at […] formulated product per 100 kg seed (2.25 to 3.75 g flutriafol active ingredient per 100 kg seed) and four rates of Vincit 5% SC suspension concentrate seed dressing at 50 to 150 g formulation per 100 kg seed (1.5 to 4.5 g flutriafol active ingredient per 100 kg seed).
# These treatments were compared with an untreated and a commercial standard treatment of Derosal Plus, which is a mixture of carbendazim plus thiram in a suspension concentrate formulation applied to seed at a rate of 200 ml formulation per 100 kg seed (30 g thiram plus 70 g carbendazim) per 100 kg seed. Both the untreated sample and the Derosal Plus treatment are provided below as comparative data.
# as §1, §2
structure (smiles),measurement,setting,value
"OC(Cn1cncn1)(c1ccc(F)cc1)c1ccccc1F (racemic) [flutriafol, (RS)-2,4′-difluoro-α-(1H-1,2,4-triazol-1-ylmethyl)benzhydryl alcohol]",disease control (in words),[1]; in-furrow treatments using 30 grams flutriafol per hectare or more,Complete disease control
same,disease control (in words),[1]; in-furrow treatments using just 3 grams flutriafol per hectare,Significant improvements in disease control
same,average recorded incidence of disease on the third trifoliate,"[1]; seed treatment 3 ppm, 21DPI",31
same,average recorded incidence of disease on the third trifoliate,"[1]; seed treatment 10 ppm, 21DPI",35
same,average recorded incidence of disease on the third trifoliate,"[1]; seed treatment 30 ppm, 21DPI",40
same,average recorded incidence of disease on the third trifoliate,"[1]; seed treatment 100 ppm, 21DPI",0
same,average recorded incidence of disease on the third trifoliate,"[1]; seed treatment 300 ppm, 21DPI",0
same,average recorded incidence of disease on the third trifoliate,"[1]; seed treatment 1000 ppm, 21DPI",0
same,disease control (in words),[1]; seed treatments using 100 ppm flutriafol or more,Complete disease control
same,average recorded incidence of disease on the third trifoliate,"[1]; soil treatment 3 g ai/Ha, 28DPI",18
same,average recorded incidence of disease on the third trifoliate,"[1]; soil treatment 10 g ai/Ha, 28DPI",16
same,average recorded incidence of disease on the third trifoliate,"[1]; soil treatment 30 g ai/Ha, 28DPI",0
same,average recorded incidence of disease on the third trifoliate,"[1]; soil treatment 100 g ai/Ha, 28DPI",0
same,average recorded incidence of disease on the third trifoliate,"[1]; soil treatment 300 g ai/Ha, 28DPI",0
same,average recorded incidence of disease on the third trifoliate,"[1]; soil treatment 1000 g ai/Ha, 28DPI",0
same,disease control (in words),[2]; in-furrow treatments using 30 grams or more flutriafol per hectare,Significant improvements
same,average recorded incidence of disease (%) on the third trifoliate,[2]; seed treatment 3 ppm,47%
same,average recorded incidence of disease (%) on the third trifoliate,[2]; seed treatment 10 ppm,28%
same,average recorded incidence of disease (%) on the third trifoliate,[2]; seed treatment 30 ppm,8%
same,average recorded incidence of disease (%) on the third trifoliate,[2]; seed treatment 100 ppm,1%
same,average recorded incidence of disease (%) on the third trifoliate,[2]; seed treatment 300 ppm,0%
same,average recorded incidence of disease (%) on the third trifoliate,[2]; seed treatment 1000 ppm,0%
same,disease control (in words),[2]; seed treatments using 10 ppm flutriafol or more,Significant improvements
same,average recorded incidence of disease (%) on the third trifoliate,[2]; soil application 3 g ai/Ha,73%
same,average recorded incidence of disease (%) on the third trifoliate,[2]; soil application 10 g ai/Ha,63%
same,average recorded incidence of disease (%) on the third trifoliate,[2]; soil application 30 g ai/Ha,53%
same,average recorded incidence of disease (%) on the third trifoliate,[2]; soil application 100 g ai/Ha,12%
same,average recorded incidence of disease (%) on the third trifoliate,[2]; soil application 300 g ai/Ha,2%
same,average recorded incidence of disease (%) on the third trifoliate,[2]; soil application 1000 g ai/Ha,1%
same,effect on plant numbers (in words),[3],unaffected
same,phytotoxicity (in words),[3],phytotoxic
same,rust control (in words),[4]; all flutriafol seed treatment rates,reduction in rust
same,rust control (in words),"[4]; in-furrow, lowest rate of 60 g flutriafol/hectare, 61 days after plant emergence",controlled the rust
same,rust control (in words),"[4]; in-furrow, rates above 150 g flutriafol/hectare, 61 days after emergence",complete control
